test: not given; conditions: background statement; cited from earlier work

| Compound | accumulation in hepatobiliary system |
| --- | --- |
| technetium-99m mercaptoacetylglycylglycylglycine [compound 3] | Unwanted accumulation in hepatobiliary system is observed |

test: not given; conditions: background statement; cited from earlier work; remark: another data set of the same source

| Compound | protein binding [%] |
| --- | --- |
| O=C(O)CNC(=O)c1ccccc1[131I] [compound 1, Iodine-131 orthoiodo-hippurate] | 32 |
| technetium-99m mercaptoacetylglycylglycylglycine [compound 3] | 77 |

test: Comparative biodistribution in mice; format: in vivo; conditions: 10 min post-injection
Protocol: (§1) Biological evaluation of technetium-99m diethylenie triamine pentaacetic acid diester by comparative biodistribution with iodine-131 orthoiodo-hippurate and technetium-99m mercaptoacetylglycylglycylglyciine.
(§2) The comparative biodistribution experiment was undertaken in mice and rats. In mice either technetium-99m diethylene triamine pentaacetic acid diester or technetium-99m mercaptoacetylglycylglycylglycine were injected via the tail vein along with iodine-131 orthoiodo-hippurate. Rats were anaesthetised with urethane and the above radiochemicals were injected via the femoral vein. After predetermined time interval the animals were sacrificed and the organs were taken in the counting vial. Considerable care were exercised not to loose any urine during the process.

| Compound | Blood, percent dose per organ [percent dose per organ] | Intestine, percent dose per organ [percent dose per organ] | Kidney, percent dose per organ [percent dose per organ] | Liver, percent dose per organ [percent dose per organ] | Urine, percent dose per organ [percent dose per organ] |
| --- | --- | --- | --- | --- | --- |
| O=C(O)CNC(=O)c1ccccc1[131I] [compound 1, Iodine-131 orthoiodo-hippurate] | 3.00 ± 1.29 | 2.16 ± 0.28 | 2.57 ± 1.05 | 2.47 ± 0.26 | 64.85 ± 2.74 |
| Technetium-99m diethylene triamine pentaacetic acid [compound 4] | 14.66 ± 3.33 | 2.71 ± 0.20 | 2.57 ± 0.30 | 2.57 ± 0.47 | 35.48 ± 2.92 |
| technetium-99m diethylene triamine pentaacetic acid dimethyl ester [compound 2] | 7.27 ± 2.41 | 3.40 ± 0.25 | 3.36 ± 0.98 | 1.65 ± 0.11 | 46.39 ± 3.67 |
| technetium-99m mercaptoacetylglycylglycylglycine [compound 3] | 6.60 ± 2.37 | 3.31 ± 0.40 | 4.32 ± 0.15 | 7.07 ± 0.82 | 48.34 ± 2.36 |

same assay, conditions: 30 min post-injection

| Compound | Blood, percent dose per organ [percent dose per organ] | Intestine, percent dose per organ [percent dose per organ] | Kidney, percent dose per organ [percent dose per organ] | Liver, percent dose per organ [percent dose per organ] | Urine, percent dose per organ [percent dose per organ] |
| --- | --- | --- | --- | --- | --- |
| O=C(O)CNC(=O)c1ccccc1[131I] [compound 1, Iodine-131 orthoiodo-hippurate] | 1.41 ± 0.72 | 1.21 ± 0.47 | 0.59 ± 0.30 | 0.90 ± 0.14 | 80.38 |
| Technetium-99m diethylene triamine pentaacetic acid [compound 4] | 5.55 ± 1.22 | 3.12 ± 0.85 | 1.08 ± 0.03 | 1.02 ± 0.30 | 60.15 |
| technetium-99m diethylene triamine pentaacetic acid dimethyl ester [compound 2] | 1.51 ± 0.53 | 1.67 ± 0.91 | 1.28 ± 0.52 | 1.22 ± 0.25 | 73.23 |
| technetium-99m mercaptoacetylglycylglycylglycine [compound 3] | 1.23 ± 0.26 | 5.82 ± 0.60 | 1.12 ± 0.25 | 4.36 ± 0.43 | 70.99 |

test: not given; format: in vivo; conditions: dog (10-12 kg)
Protocol: (§3) Renal plasma clearance of technetium-99m diethylene triamine pentaacetic acid dimethyl ester was studied in rats by single injection method. Two plasma samples were collected at 20 and 30 min time point. The clearance was calculated using a single compartment model. Iodine-131 orthoiodo-hippurate was coinjected as standard. This experiment was also performed with technetium-99m mercaptoacetylglycylglycylglycine. […] The corresponding values in dog (10-12 kg) for technetiumn-99m diethylene triamine pentaacetic acid dimethyl ester and technetium-99m mercaptoacetylglycylglycylglycine along with coinjected hippurate were 72, 80 and 157 ml/min. These values are much higher than technetium-99m diethylene triamine pentaacetic acid in rats (0.82 ml/min 100 g) or dogs (43 ml/min).

| Compound | Renal plasma clearance [mL/min] |
| --- | --- |
| O=C(O)CNC(=O)c1ccccc1[131I] [compound 1, Iodine-131 orthoiodo-hippurate] | 157 |
| Technetium-99m diethylene triamine pentaacetic acid [compound 4] | 43 |
| technetium-99m diethylene triamine pentaacetic acid dimethyl ester [compound 2] | 72 |
| technetium-99m mercaptoacetylglycylglycylglycine [compound 3] | 80 |

test: Renal plasma clearance in rats, single injection method; format: in vivo; conditions: plasma samples at 20 and 30 min, single compartment model
Protocol: as §3

| Compound | Renal plasma clearance [ml/min/100 g] |
| --- | --- |
| O=C(O)CNC(=O)c1ccccc1[131I] [compound 1, Iodine-131 orthoiodo-hippurate] | 2.68 |
| Technetium-99m diethylene triamine pentaacetic acid [compound 4] | 0.82 |
| technetium-99m diethylene triamine pentaacetic acid dimethyl ester [compound 2] | 1.39 |
| technetium-99m mercaptoacetylglycylglycylglycine [compound 3] | 1.45 |

test: not given; conditions: background comparison of MAG3 with iodine-131 orthoiodo-hippurate; cited from earlier work

| Compound | Renal extraction [%] |
| --- | --- |
| O=C(O)CNC(=O)c1ccccc1[131I] [compound 1, Iodine-131 orthoiodo-hippurate] | 79 |
| technetium-99m mercaptoacetylglycylglycylglycine [compound 3] | 53 |

same assay, conditions: background statement; cited from earlier work

| Compound | extraction efficiency [%] |
| --- | --- |
| Technetium-99m diethylene triamine pentaacetic acid [compound 4] | 20 |
| O=C(O)CNC(=O)c1ccccc1I [Orthoiodo-hippurate] | 87 |

test: Comparative biodistribution in rats; format: in vivo; conditions: conclusion from biodistribution in rats or mice or scintigraphic experiments on dog
Protocol: as §1, §2

| Compound | hepatobiliary accumulation |
| --- | --- |
| technetium-99m diethylene triamine pentaacetic acid dimethyl ester [compound 2] | no hepatobiliary accumulation |
| technetium-99m mercaptoacetylglycylglycylglycine [compound 3] | appreciable amount |

same assay, conditions: rat, 10 min post-injection

| Compound | Blood, percent dose per organ [percent dose per organ] | Intestine, percent dose per organ [percent dose per organ] | Kidney, percent dose per organ [percent dose per organ] | Liver, percent dose per organ [percent dose per organ] | Urine, percent dose per organ [percent dose per organ] |
| --- | --- | --- | --- | --- | --- |
| O=C(O)CNC(=O)c1ccccc1[131I] [compound 1, Iodine-131 orthoiodo-hippurate] | 5.61 ± 0.87 | 2.12 ± 0.41 | 3.72 ± 0.77 | 3.29 ± 1.14 | 48.92 ± 1.54 |
| Technetium-99m diethylene triamine pentaacetic acid [compound 4] | 19.06 ± 2.37 | 3.65 ± 2.05 | 5.13 ± 1.00 | 4.91 ± 1.18 | 21.23 ± 1.61 |
| technetium-99m diethylene triamine pentaacetic acid dimethyl ester [compound 2] | 8.26 ± 0.75 | 2.19 ± 0.41 | 3.21 ± 0.29 | 2.14 ± 0.41 | 30.94 ± 3.40 |
| technetium-99m mercaptoacetylglycylglycylglycine [compound 3] | 4.22 ± 0.40 | 4.94 ± 1.39 | 8.51 ± 1.54 | 3.37 ± 0.76 | 33.15 ± 6.30 |

same assay, conditions: rat, 30 min post-injection

| Compound | Blood, percent dose per organ [percent dose per organ] | Intestine, percent dose per organ [percent dose per organ] | Kidney, percent dose per organ [percent dose per organ] | Liver, percent dose per organ [percent dose per organ] | Urine, percent dose per organ [percent dose per organ] |
| --- | --- | --- | --- | --- | --- |
| O=C(O)CNC(=O)c1ccccc1[131I] [compound 1, Iodine-131 orthoiodo-hippurate] | 1.47 ± 0.28 | 1.92 ± 0.39 | 0.94 ± 0.20 | 0.80 ± 0.12 | 79.80 |
| Technetium-99m diethylene triamine pentaacetic acid [compound 4] | 7.08 ± 1.50 | 6.43 ± 1.42 | 2.78 ± 1.00 | 3.30 ± 0.79 | 43.32 |
| technetium-99m diethylene triamine pentaacetic acid dimethyl ester [compound 2] | 3.49 ± 0.36 | 1.53 ± 0.10 | 1.47 ± 0.41 | 0.91 ± 0.03 | 64.20 |
| technetium-99m mercaptoacetylglycylglycylglycine [compound 3] | 2.31 ± 0.24 | 10.12 ± 0.88 | 2.99 ± 0.96 | 4.48 ± 1.48 | 63.50 |

— patent US6334995B1, “Process for the preparation of technetium-99m diethylene triamine penta-acetic acid diester” (Council of Scientific & Industrial Research, priority 1998, dated 2002)
